Reference: patent US20220218679A1, “NOVEL COMPOUNDS AND PHARMACEUTICAL COMPOSITIONS THEREOF FOR THE TREATMENT OF INFLAMMATORY DISORDERS” (Galapagos NV, priority 2019, published 2022)

Legend:
[1] = test system: CL097 triggered TNFα release in human whole blood; assay: Ex vivo human TNFα release inhibition (human whole blood assay); assay type: cell-based; conditions: Homo sapiens, CL097 2 μg/mL, 3 h 30 min at 37° C.
Excerpt: (§1) 4.10.1. Ex Vivo Human IFNα and TNFα Release Inhibition (Human Whole Blood Assay)
(§2) The aim of the assay is to evaluate the activity of compounds of the invention on the activated TLR/IRAK-4 pathway in an ex vivo human whole blood setting. Toll-like receptors (TLRs) are pattern recognition receptors that recognize a wide variety of microbial molecules, called pathogen-associated molecular patterns (PAMPs). Human TLR7 and TLR8 recognize imidazoquinoline compounds (e.g., CL097—CAS n #1026249-18-2) and single stranded RNAs as their natural ligands. Activation of TLRs leads to the production of several cytokines (e.g., IFNα, TNFα, IL-8, IL-6) by the TLR agonist-treated cells, whereas IRAK4 leads to the production of IFNα. Cytokine release is used as readout in this assay and represents a measure for the level of inhibition of the TLR/IRAK-4 pathway by the tested compound. It should be noted that in the context of the complete organism, other sources for these cytokines exist that are not dependent on the TLR/IRAK-4 pathway, such as e.g., macrophages (upon activation of the Fcγ receptor (Yan et al., 2012)) or T cells (upon activation of the T cell receptor (Brehm et al., 2005)).
(§3) 4.10.1.1. Experimental Design
(§4) Blood was collected from healthy volunteers into lithium heparin tubes by venipuncture, then gently inverted several times to prevent clotting and incubated for at least 15 min at 37° C. on a rocking mixer shaker. Then, 100 μL of blood was dispensed into polypropylene 96-well microplate and pre-incubated in duplicate with 0.3% DMSO or test compound at different concentrations (from 30 to 0.01 μM, 3-fold dilutions to get 0.3% DMSO at the final) for 15 min at 37° C. After this pre-incubation, blood was triggered with CL097 (2 μg/mL from 1 mg/mL solution in water; InvivoGen, tlrl-c97) for 3 h 30 min at 37° C. Microtubes were centrifuged at 5000×g for 10 min at 4° C. and approximately 40 μL of plasma were collected into a polystyrene 96-well plate. Plasma could be analyzed freshly, within 30 min after triggering, or frozen at −80° C. Finally, the quantification of TNFα and IFNα were performed in the plasma using AlphaLISA Kit for TNFα and IFNα according to the manufacturer's instructions and read on the Ensight (PerkinElmer).
For each blood sample, the TNFα concentrations of the samples were determined from the fit. Data were then expressed a percentage of inhibition PIN for each replicate using the formula:
With mean TNFα with CL097=mean TNFα concentration of replicate samples triggered with CL097; TNFαsample1=TNFα concentration of sample 1; mean TNFα with vehicle=mean TNFα concentration of replicate samples treated with vehicle.
(§5) Curve fitting for pIC50 determination were generated using mean PIN±sem. Graphs and pIC50 calculations were derived using Prism 5.03 software (GraphPad).

[2] = test system: CL097 triggered IFNα release in human whole blood; assay: Ex vivo human IFNα release inhibition (human whole blood assay); assay type: cell-based; conditions: Homo sapiens, CL097 2 μg/mL, 3 h 30 min at 37° C.
Excerpt: as §1, §2, §3, §4
A standard curve was created by plotting on log-log the mean […] on the y-axis against the concentration on the x-axis and a 4-parameters logistic regression (4PL) was made through the points. For each blood sample, the IFNα concentrations of the samples were determined from the fit. Data were then expressed as a percentage of inhibition (PIN) for each replicate using the formula:
With mean IFNα with CL097=mean IFNα concentration of replicate samples triggered with CL097; IFNαsample1=IFNα concentration of sample 1; mean IFNα with vehicle=mean IFNα concentration of replicate samples treated with vehicle.
as §5

Mouse Hepatocyte = assay: Metabolic stability in hepatocytes (mouse); assay type: in vitro ADME; conditions: 1 μM test compound, cryopreserved mouse hepatocytes
Experimental: 4.6. Metabolic Stability in Hepatocytes
The aim of this assay is to determine the metabolic stability of the compound in hepatocytes (cryopreserved) of different species. Low hepatocyte stability may result in the formation of unwanted metabolites, high clearance, and therefore is not desirable.
The decrease in parent was assessed by measuring the percentage remaining by LC-MS/MS analysis.
A 10 mM stock solution of test compound in DMSO was first diluted in DMSO to 3 mM, and then in modified Krebs-Henseleit buffer (Sigma, K3753) to 5 μM. This compound dilution was added to a suspension of pooled cryopreserved hepatocytes (BioreclamationIVT) at 37° C. under gentle shaking.
Final reaction conditions were: 1 μM of test compound, 0.03% DMSO, 0.5 million viable hepatocytes/mL, and 75 μL incubation volume.
Testosterone (1 μM) and 7-hydroxycoumarin (1 μM) were used, respectively as phase I and phase II metabolic reaction controls.
After 0, 10, 20, 45, 90, 120 and 180 min of incubation, the reaction was terminated with 225 μL of MeCN:MeOH (2:1) containing 100 ng/mL of diclofenac as analytical internal standard. Samples were mixed, centrifuged and the supernatant analyzed by LC-MS/MS.
The instrument responses (ratios of test compound and internal standard peak areas) were referenced to the zero time point samples (considered as 100%) in order to determine the percentage of compound remaining.
Plots of percentage compound remaining were used to determine the intrinsic clearance in the hepatocyte incubations using the following equations:
Scaled Clint [L/h/kg]=Clint[μL/min/10^6 cells]*#(10^6) cells/g liver*60*( 1/10^6) Scaled Clint unbound [L/h/kg]=Clint [L/h/kg]/Fu,inc where: fu,inc equals hepatocyte binding, derived from microsomal binding (fu,mic) by following equation: […]

| IC50 [1] | IC50 [2] | Mouse Hepatocyte stability (Perc. remaining at 90 min) (Mouse Hepatocyte) | SMILES |
| --- | --- | --- | --- |
| 1000 to 5000 nM | 1000 to 5000 nM | 97.05 Perc. | CNC(=O)c1cn2nc(C3CCN(C)CC3)cc2cc1NC(=O)c1cccc(C(F)(F)F)n1 [Compound 12, N-methyl-2-(1-methyl-4-piperidyl)-5-[[6-(trifluoromethyl)pyridine-2-carbonyl]amino]pyrazolo[1,5-a]pyridine-6-carboxamide] |
| 500 to 1000 nM | 1000 to 5000 nM | 83.65 Perc. | CCOc1cn2nc(CCC(C)(C)O)cc2cc1NC(=O)c1cccn(C(F)F)c1=O [Compound 9, 1-(difluoromethyl)-N-[6-ethoxy-2-(3-hydroxy-3-methyl-butyl)pyrazolo[1,5-a]pyridin-5-yl]-2-oxo-pyridine-3-carboxamide] |
| 1000 to 5000 nM | 1000 to 5000 nM | 108.25 Perc. | COc1cn2nc(CCC(C)(C)O)cc2cc1NC(=O)c1cccn(C(F)F)c1=O [Compound 7, 1-(difluoromethyl)-N-[2-(3-hydroxy-3-methyl-butyl)-6-methoxy-pyrazolo[1,5-a]pyridin-5-yl]-2-oxo-pyridine-3-carboxamide] |
| 0.1 to 500 nM | 0.1 to 500 nM | 99.45 Perc. | COc1cn2nc(CCC(C)(C)O)cc2cc1NC(=O)c1cccn(C2CC2)c1=O [Compound 1, 1-cyclopropyl-N-[2-(3-hydroxy-3-methylbutyl)-6-methoxypyrazolo[1,5-a]pyridin-5-yl]-2-oxopyridine-3-carboxamide] |
